Data as given in patent US20250127913A1, “BIFUNCTIONAL FOLATE RECEPTOR BINDING COMPOUNDS” (LYCIA THERAPEUTICS, INC., priority 2021, published 2025).
pIC50, pKd: −log10 of the molar value.

Experiments:
THP-1 cells = assay: Compound mediated uptake of TNFα-pHrodo in THP-1 cells (flow cytometry); format: cell-based; conditions: THP-1 cells, 24 hrs
Description: THP-1 cells, a monocytic leukemia cell line that endogenously express folate receptor beta, were used as a model system to measure example compound stimulated uptake of in-house produced TNFα conjugated to the pH sensitive fluorescent dye pHrodo green (ThermoFisher Scientific #P35369).
THP-1 cells were maintained in RPMI (Gibco #61870143) with 10% v/v FBS (VWR #89510-188) with 2 mM L-alanyl-L-glutamine dipeptide, 100 units/ml penicillin and 100 μg/ml streptomycin (Gibco #15140148). Cells were pelleted, resuspended in folate-free RPMI (Gibco #27016021) and seeded at 50,000 cells per well of a 96 well plate. Example compound was added to each well as a log 2 dilution series ranging from 20 μM to 125 nM final concentration. Cells were incubated for 24 hrs and washed/resuspended in phosphate buffered saline (pH 7.4) with 1% w/v BSA. Uptake was measured using a Novocyte Advanteon Flow Cytometer (Agilent Technologies) with the […] and FITC detection configuration.

[1] = target: TNFα and streptavidin immobilized FOL2R (Homo sapiens (Human), UniProt P01375+P14207); assay: Ternary complex SPR assay; format: binding; conditions: 10 nM compound, max response normalized to expected response; for TC 150 nM- tagless TNF Normalized: 150 nM untagged TNF; for TC 300 nM- tagless TNF Normalized: 300 nM untagged TNF; for TC 60 nM taggless TNF normalized: 60 nM untagged TNF
Description: Folate receptor-TNFα ternary complex SPR assays were conducted on a Biacore 8K instrument (Cytiva) using biotinylated folate receptor beta (Acro Biosystems). Folate receptor was immobilized at -1800 RU on a streptavidin chip (Cytiva) in 10 mM HEPES pH 7.5, 150 mM NaCl, 0.05% Tween 20. Untagged TNF was preincubated with 10 nM compound for 6 hr in 10 mM HEPES pH 7.5, 150 mM NaCl, 0.05 Tween 20, 2% DMSO at 25° C. Samples were then injected over the folate receptor surface at 30 μl/min with an association time of 110 s and a dissociation time of 600 s. Surfaces were regenerated with 4 M MgCl2 at 30 μl/mm for 30 s. The maximum measured response was normalized by comparison to the maximum expected response for each compound.

TNFα = TNFα (Homo sapiens (Human), UniProt P01375); assay: TNFα binding assay (time-resolved FRET, biotinylated TNFα); conditions: 1 nM biotinylated TNFα, 80 nM probe, 16 hr incubation; read-out: TNF-HTRF-biotin
Description: TNFα binding was measured in black 96-well plates using a time-resolved FRET assay using a previously described fluorescence acceptor TNFα probe (Xiao et al J. Med. Chem. 2020). Biotinylated TNFα was purchased from Acro Biosystems. Binding reactions were conducted in 20 mM Hepes (pH 7.5) 10 mM MgCl2 0.015% Tween-20 0.05 mg/ml BSA 2% DMSO with 1 nM TNFα 0.5 nM Streptavidin-Tb and 80 nM probe. Test compounds were resuspended in DMSO and 3-fold serial dilutions were made at 100× final concentrations. Fluorescence was measured using λex=340 nm, λem=490, 520 nm on an SpectraMax M5e plate reader (Molecular Devices) after 16 hr incubation time. Dose responses were conducted in duplicate and normalized to the response with DMSO (high) and 100 nM (R)-3-(1-((3-chloro-7-fluoro-6-(2-(2-hydroxypropan-2-yl)pyrimidin-5-yl)-2-methyl-1,5-naphthyridin-4-yl)amino)ethyl)-4-fluorobenzonitrile (low) on each plate. IC50 values were determined by fitting to 4-parameter curves in GraphPad Prism.

folate receptor beta [2] = target: T1, folate receptor beta (Homo sapiens (Human), UniProt P14207); assay: Folate receptor binding assay (fluorescence polarization); conditions: 2.5 nM folate receptor beta, 2 nM FR-Cy probe, 2 hr incubation; read-out: FOLR2-FP
Description: Folate receptor binding was measured in black 96-well plates using a fluorescence polarization assay. A fluorescent probe consisting of a folate analog linked to Cy5 (FR-Cy) was custom synthesized.
Test compounds were resuspended in DMSO and 3-fold serial dilutions were made from 300-0.015 μM (100× final concentrations). Binding reactions were conducted in 200 μl final volume in 20 mM Hepes (pH 7.5) 250 mM NaCl 0.0150 Tween-20 1% DMSO with 2.5 nM folate receptor beta (Acro Biosystems) and 2 nM probe. Fluorescence polarization was measured using λex=620 nm, λem=688 nm on an Envision plate reader (Perkin Elmer) after 2 hr incubation time. Dose responses were conducted in duplicate and normalized to the response with DMSO (high) and 1 μM folic acid (low) on each plate. IC50 values were determined by fitting to 4-parameter curves in GraphPad Prism.

folate receptor beta [3] = target: T1, folate receptor beta; assay: Folate receptor SPR assay (biotinylated folate receptor beta on streptavidin chip); format: binding
Description: Folate receptor SPR binding assays were conducted on a Biacore 8K instrument (Cytiva) using biotinylated folate receptor beta (Acro Biosystems). Briefly, folate receptor was immobilized at -550 RU on a streptavidin chip (Cytiva) in 10 mM HEPES pH 7.5, 150 mM NaCl, 0.05% Tween 20. Multi-cycle kinetic studies were conducted with 8 compound concentrations using 2-fold dilutions in 10 mM HEPES pH 7.5, 150 mM NaCl, 0.05% Tween 20, 2% DMSO at 25° C. A flow rate or 75 μl/mmn with an association time of 120 s and a dissociation time of 600 s were used. Surfaces were regenerated with 4 M MgCl2 at 30 μl/min for 30 s. Data were fit to a 1:1 model to determine the reported binding parameters.

Chain of TNFα and streptavidin immobilized FOL2R (P14207 17-230): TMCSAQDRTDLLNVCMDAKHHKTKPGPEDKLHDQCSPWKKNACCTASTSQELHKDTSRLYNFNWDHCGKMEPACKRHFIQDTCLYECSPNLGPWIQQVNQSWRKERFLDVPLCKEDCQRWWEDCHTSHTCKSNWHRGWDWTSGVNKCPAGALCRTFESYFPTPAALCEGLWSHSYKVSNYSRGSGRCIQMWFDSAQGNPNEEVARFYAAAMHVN
Chain of TNFα and streptavidin immobilized FOL2R (P01375 77-233): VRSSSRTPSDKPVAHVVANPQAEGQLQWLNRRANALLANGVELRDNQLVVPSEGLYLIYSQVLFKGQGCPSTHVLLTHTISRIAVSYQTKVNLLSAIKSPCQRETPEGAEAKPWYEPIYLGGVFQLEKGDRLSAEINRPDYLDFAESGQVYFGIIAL
T1 sequence (P14207 17-255): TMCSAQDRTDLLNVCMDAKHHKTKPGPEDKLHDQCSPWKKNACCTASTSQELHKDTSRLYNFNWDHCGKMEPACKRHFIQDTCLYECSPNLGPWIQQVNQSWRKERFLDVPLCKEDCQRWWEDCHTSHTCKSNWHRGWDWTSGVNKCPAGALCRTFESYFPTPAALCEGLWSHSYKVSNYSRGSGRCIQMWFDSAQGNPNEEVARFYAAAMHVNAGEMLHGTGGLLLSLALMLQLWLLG
Chain of TNFα (P01375 77-233): as the sequence (P01375 77-233) above

Compound | TC 300 nM- tagless TNF Normalized [1] [%] | pIC50 (TNFα) | pIC50 (folate receptor beta [2]) | other results
Cc1nc2cc(F)c(-c3cnc(OCCCCCn4cc(COCCOCCOCCOCCNC(=O)[C@H](CCC(=O)O)NC(=O)c5ccc(NCc6cnc7nc(N)nc(O)c7n6)cc5)nn4)nc3)nc2c(N[C@H](C)c2cc(C#N)ccc2F)c1Cl [Compound 1-21] |  |  |  | uptake of labelled TNFα (median fluorescence intensity of pHrodo dye) (THP-1 cells): stimulate uptake of TNFα
Cc1nc2cc(F)c(-c3cnc(N4CCN(C(=O)COCCn5cc(COCCOCCOCCOCCNC(=O)CC[C@H](NC(=O)c6ccc(NCc7cnc8nc(N)nc(O)c8n7)cc6)C(=O)O)nn5)CC4)nc3)nc2c(N[C@H](C)c2cc(C#N)ccc2F)c1Cl [Compound I-45, (S)-18-(4-(((2-amino-4-hydroxypteridin-6-yl)methyl)amino)benzamido)-1-(1-(2-(2-(4-(5-(7-chloro-8-(((R)-1-(5-cyano-2-fluorophenyl)ethyl)amino)-3-fluoro-6-methyl-1,5-naphthyridin-2-yl)pyrimidin-2-yl)piperazin-1-yl)-2-oxoethoxy)ethyl)-1H-1,2,3-triazol-4-yl)-15-oxo-2,5,8,11-tetraoxa-14-azanonadecan-19-oic acid] | 17.6 | 7.60 | 8.38 | TC 150 nM- tagless TNF Normalized [1]: 16.3%
Cc1nc2cc(F)c(-c3cnc(N4CCN(C(=O)COCCOCCOCCOCCN5CCN(C(=O)CC[C@H](NC(=O)c6ccc(N(C)Cc7cnc8nc(N)[nH]c(=O)c8n7)cc6)C(=O)O)CC5)CC4)nc3)nc2c(N[C@H](C)c2cc(C#N)ccc2F)c1Cl [Compound I-78, (S)-2-(4-(((2-amino-4-oxo-3,4-dihydropteridin-6-yl)methyl)(methyl)amino)benzamido)-5-(4-(14-(4-(5-(7-chloro-8-(((R)-1-(5-cyano-2-fluorophenyl)ethyl)amino)-3-fluoro-6-methyl-1,5-naphthyridin-2-yl)pyrimidin-2-yl)piperazin-1-yl)-14-oxo-3,6,9,12-tetraoxatetradecyl)piperazin-1-yl)-5-oxopentanoic acid] |  | 7.89 | 8.04 | 
Cc1nc2cc(F)c(-c3cnc(N4CCN(C(=O)COCCOCCOCCOCCOCCOCCn5cc(CC[C@H](NC(=O)c6ccc(SCc7ccc8nc(N)nc(O)c8c7)cc6)C(=O)O)nn5)CC4)nc3)nc2c(N[C@H](C)c2cc(C#N)ccc2F)c1Cl [Compound I-79, (S)-2-(4-(((2-amino-4-hydroxyquinazolin-6-yl)methyl)thio)benzamido)-4-(1-(20-(4-(5-(7-chloro-8-(((R)-1-(5-cyano-2-fluorophenyl)ethyl)amino)-3-fluoro-6-methyl-1,5-naphthyridin-2-yl)pyrimidin-2-yl)piperazin-1-yl)-20-oxo-3,6,9,12,15,18-hexaoxaicosyl)-1H-1,2,3-triazol-4-yl)butanoic acid] |  | 7.77 | 8.49 | 
Cc1nc2cc(F)c(-c3cnc(N4CC5(CN(C(=O)COCCOCCOCCOCCOCCOCCn6cc(CC[C@H](NC(=O)c7ccc(NCc8cnc9nc(N)nc(O)c9n8)cc7)C(=O)O)nn6)C5)C4)nc3)nc2c(N[C@H](C)c2cc(C#N)ccc2F)c1Cl [Compound I-81, (S)-2-(4-(((2-amino-4-hydroxypteridin-6-yl)methyl)amino)benzamido)-4-(1-(20-(6-(5-(7-chloro-8-(((R)-1-(5-cyano-2-fluorophenyl)ethyl)amino)-3-fluoro-6-methyl-1,5-naphthyridin-2-yl)pyrimidin-2-yl)-2,6-diazaspiro[3.3]heptan-2-yl)-20-oxo-3,6,9,12,15,18-hexaoxaicosyl)-1H-1,2,3-triazol-4-yl)butanoic acid] | 12.1 | 7.41 | 8.15 | TC 60 nM taggless TNF normalized [1]: 4%
CN(Cc1cnc2nc(N)[nH]c(=O)c2n1)c1ccc(C(=O)N[C@@H](CCc2cn(CCOCCOCCOCCOCCOCCOCC(=O)N3CCN(c4ncc(-c5ccc6nc(COc7cccc(N8CCCC8=O)c7)n(Cc7ccccc7OC(F)F)c6c5)cn4)CC3)nn2)C(=O)O)cc1 [Compound I-83, (S)-2-(4-(((2-amino-4-oxo-3,4-dihydropteridin-6-yl)methyl)(methyl)amino)benzamido)-4-(1-(20-(4-(5-(1-(2-(difluoromethoxy)benzyl)-2-((3-(2-oxopyrrolidin-1-yl)phenoxy)methyl)-1H-benzo[d]imidazol-6-yl)pyrimidin-2-yl)piperazin-1-yl)-20-oxo-3,6,9,12,15,18-hexaoxaicosyl)-1H-1,2,3-triazol-4-yl)butanoic acid] | 17.5 | 7.55 | 8.28 | TC 60 nM taggless TNF normalized [1]: 14.3%
C[C@@H]1CN(c2ncc(-c3ccc4c(c3)N(Cc3ccccc3OC(F)F)C(C)(C)C4=O)cn2)CCN1C(=O)COCCOCCOCCOCCOCCOCCn1cc(CC[C@H](NC(=O)c2ccc(NCc3cnc4nc(N)nc(O)c4n3)cc2)C(=O)O)nn1 [Compound I-88, (S)-2-(4-(((2-amino-4-hydroxypteridin-6-yl)methyl)amino)benzamido)-4-(1-(20-((R)-4-(5-(1-(2-(difluoromethoxy)benzyl)-2,2-dimethyl-3-oxoindolin-6-yl)pyrimidin-2-yl)-2-methylpiperazin-1-yl)-20-oxo-3,6,9,12,15,18-hexaoxaicosyl)-1H-1,2,3-triazol-4-yl)butanoic acid] |  | 7.22 | 8.16 | 
Cc1nc2cc(F)c(-c3cnc(N4CCN(C(=O)COCCn5cc(COCCOCCOCCN6CCN(C(=O)[C@H](CCC(=O)O)NC(=O)c7ccc(NCc8cnc9nc(N)nc(O)c9n8)cc7)CC6)nn5)CC4)nc3)nc2c(N[C@H](C)c2cc(C#N)ccc2F)c1Cl [Compound I-97] | 21.1 |  | 7.77 | TC 150 nM- tagless TNF Normalized [1]: 18.4%; Rmax (folate receptor beta [3]; biotinylated folate receptor beta on streptavidin chip): 17.1 RU; kd (folate receptor beta [3]; multi-cycle kinetics, 25° C., 1:1 model): 0.000798 s⁻¹; pKd (folate receptor beta [3]; multi-cycle kinetics, 25° C., 1:1 model, read-out: FOLR2Biotin - SPR Kd): 10.04; kon (folate receptor beta [3]; pH 7.5, multi-cycle kinetics, 25° C., 1:1 model, read-out: ka): 8.74e+06 M⁻¹ s⁻¹
